Experimental findings from ChEMBL document CHEMBL4014291, “Tripodal squaramide conjugates as highly effective transmembrane anion transporters” (Bioorg Med Chem Lett, 2017) are described below.

A short description of experiment [1]: Ionophoric activity across pyranine dye encapsulated pH 7 egg yolk L-alpha-phosphatidylcholine-based large unilamellar vesicles assessed as chloride ion transport by measuring initial rate constant for induction of pH discharge at 0.5 mol% in presence of NaCl loaded external vesicles by fluorescence method (reference value: 0.81 +/- 0.22 10^-2/min).
The nature of experiment [2]: Ionophoric activity across pyranine dye encapsulated pH 7 egg yolk L-alpha-phosphatidylcholine-based large unilamellar vesicles assessed as chloride ion transport by measuring initial rate constant for induction of pH discharge at 1 mol% in presence of NaCl loaded external vesicles by fluorescence method (reference value: 0.81 +/- 0.22 10^-2/min).
Experiment [3] can be described thus: Ionophoric activity across egg yolk L-alpha-phosphatidylcholine-based large unilamellar vesicles loaded with LiCl assessed as chloride ion efflux at 3 mol% after 300 seconds in presence of NaNO3 loaded external vesicles by electrode technique.
Experiment [4] in a line: Ionophoric activity across egg yolk L-alpha-phosphatidylcholine-based large unilamellar vesicles loaded with KCl assessed as chloride ion efflux at 3 mol% after 300 seconds in presence of NaNO3 loaded external vesicles by electrode technique.
The nature of experiment [5]: Ionophoric activity across egg yolk L-alpha-phosphatidylcholine-based large unilamellar vesicles loaded with RbCl assessed as chloride ion efflux at 3 mol% after 300 seconds in presence of NaNO3 loaded external vesicles by electrode technique.
Experiment [6] in a line: Ionophoric activity across egg yolk L-alpha-phosphatidylcholine-based large unilamellar vesicles loaded with CsCl assessed as chloride ion efflux at 3 mol% after 300 seconds in presence of NaNO3 loaded external vesicles by electrode technique.
Experiment [7] in a line: Ionophoric activity across pyranine dye encapsulated pH 7 egg yolk L-alpha-phosphatidylcholine-based large unilamellar vesicles assessed as nitrate ion transport by measuring initial rate constant for induction of pH discharge at 0.25 mol% in presence of NaNO3 loaded external vesicles by fluorescence method (reference value: 2.24 +/- 0.52 10^-2/min).
A short description of experiment [8]: Ionophoric activity across pyranine dye encapsulated pH 7 egg yolk L-alpha-phosphatidylcholine-based large unilamellar vesicles assessed as nitrate ion transport by measuring initial rate constant for induction of pH discharge at 0.0313 mol% in presence of NaNO3 loaded external vesicles by fluorescence method (reference value: 2.24 +/- 0.52 10^-2/min).
Experiment [9] in a line: Ionophoric activity across egg yolk L-alpha-phosphatidylcholine-based large unilamellar vesicles loaded with KCl assessed as chloride ion efflux at 1 mol% after 300 seconds in presence of NaNO3 loaded external vesicles by electrode technique.
The nature of experiment [10]: Ionophoric activity across pyranine dye encapsulated pH 7 egg yolk L-alpha-phosphatidylcholine-based large unilamellar vesicles assessed as chloride ion transport by measuring initial rate constant for induction of pH discharge at 0.0078 mol% in presence of NaCl loaded external vesicles by fluorescence method (reference value: 0.81 +/- 0.22 10^-2/min).
The nature of experiment [11]: Binding affinity to tetrabutylammonium chloride anion by 1H NMR spectrophotometric method.
Experiment [12] can be described thus: Ionophoric activity across pyranine dye encapsulated pH 7 egg yolk L-alpha-phosphatidylcholine-based large unilamellar vesicles assessed as chloride ion transport by measuring initial rate constant for induction of pH discharge at 0.0625 mol% in presence of NaCl loaded external vesicles by fluorescence method (reference value: 0.81 +/- 0.22 10^-2/min).
Experiment [13] can be described thus: Ionophoric activity across pyranine dye encapsulated pH 7 egg yolk L-alpha-phosphatidylcholine-based large unilamellar vesicles assessed as bromide ion transport by measuring initial rate constant for induction of pH discharge at 0.0078 mol% in presence of NaBr loaded external vesicles by fluorescence method (reference value: 2.08 +/- 0.19 10^-2/min).
A short description of experiment [14]: Ionophoric activity across pyranine dye encapsulated pH 7 egg yolk L-alpha-phosphatidylcholine-based large unilamellar vesicles assessed as nitrate ion transport by measuring initial rate constant for induction of pH discharge at 0.00781 mol% in presence of NaNO3 loaded external vesicles by fluorescence method (reference value: 2.24 +/- 0.52 10^-2/min).
Experiment [15] can be described thus: Ionophoric activity across pyranine dye encapsulated pH 7 egg yolk L-alpha-phosphatidylcholine-based large unilamellar vesicles assessed as nitrate ion transport by measuring initial rate constant for induction of pH discharge at 0.03125 mol% in presence of NaNO3 loaded external vesicles by fluorescence method (reference value: 2.24 +/- 0.52 10^-2/min).
Experiment [16] in a line: Ionophoric activity across egg yolk L-alpha-phosphatidylcholine-based large unilamellar vesicles loaded with LiCl assessed as chloride ion efflux at 1 mol% after 300 seconds in presence of NaNO3 loaded external vesicles by electrode technique.
Experiment [17] can be described thus: Ionophoric activity across egg yolk L-alpha-phosphatidylcholine-based large unilamellar vesicles loaded with RbCl assessed as chloride ion efflux at 1 mol% after 300 seconds in presence of NaNO3 loaded external vesicles by electrode technique.
A short description of experiment [18]: Ionophoric activity across egg yolk L-alpha-phosphatidylcholine-based large unilamellar vesicles loaded with CsCl assessed as chloride ion efflux at 1 mol% after 300 seconds in presence of NaNO3 loaded external vesicles by electrode technique.
The nature of experiment [19]: Binding affinity to tetrabutylammonium sulphate anion by 1H NMR spectrophotometric method.

Activity calls are given as the source filed them. The rule behind the calls is not given here.

On to `O=c1c(NCCN(CCNc2c(Nc3cc(C(F)(F)F)cc(C(F)(F)F)c3)c(=O)c2=O)CCNc2c(Nc3cc(C(F)(F)F)cc(C(F)(F)F)c3)c(=O)c2=O)c(Nc2cc(C(F)(F)F)cc(C(F)(F)F)c2)c1=O`, for which the K came to 6.63 ×10⁻² /min in [1], 9.42 ×10⁻² /min in experiment [2], 10.2 ×10⁻² /min in experiment [7] and 3.2 ×10⁻² /min in experiment [8]. Besides, the result in [3], in experiment [4], in experiment [5] and in experiment [6] was inactive.
For `O=c1c(NCCN(CCNc2c(Nc3ccc(C(F)(F)F)cc3)c(=O)c2=O)CCNc2c(Nc3ccc(C(F)(F)F)cc3)c(=O)c2=O)c(Nc2ccc(C(F)(F)F)cc2)c1=O`, the result in experiment [9], in experiment [16], in experiment [17] and in experiment [18] was inactive. Besides, the K was determined as 1.27 ×10⁻² /min in [10]; 2.69 ×10⁻² /min in [12]; 2.59 ×10⁻² /min in [13]; 2.53 ×10⁻² /min in experiment [14]; 4.91 ×10⁻² /min in [15]. In addition, the logKa in experiment [11] worked out at 2.65; in [19], 4.87.
